Test results published in patent US10758534B2 (Vertex Pharmaceuticals Incorporated, priority 2014, dated 2020).

Each compound was assayed against T1, F508del (Homo sapiens, UniProt P13569, DEL508-508) (assay: Protocol 2: FRET membrane potential optical assay (VIPR), identification of correction compounds). Settings: F508del CFTR modulator activity; compounds of Table 1; read-out: EC30.
T1 construct: expressed in transfected cells
Type: cell-based
Outline: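 Corrector readout: membrane-potential FRET (CC2-DMPE donor, DiSBAC2(3) acceptor) on VIPR II after Cl⁻-free gluconate bath with 10 μM forskolin and 20 μM genistein. Before this, F508del-expressing NIH3T3 cells were exposed to test compound for 16 h at 37 °C without serum; 27 °C incubation served as temperature-correction control.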

T1 sequence (P13569 with tags, fused parts or gaps DEL508-508): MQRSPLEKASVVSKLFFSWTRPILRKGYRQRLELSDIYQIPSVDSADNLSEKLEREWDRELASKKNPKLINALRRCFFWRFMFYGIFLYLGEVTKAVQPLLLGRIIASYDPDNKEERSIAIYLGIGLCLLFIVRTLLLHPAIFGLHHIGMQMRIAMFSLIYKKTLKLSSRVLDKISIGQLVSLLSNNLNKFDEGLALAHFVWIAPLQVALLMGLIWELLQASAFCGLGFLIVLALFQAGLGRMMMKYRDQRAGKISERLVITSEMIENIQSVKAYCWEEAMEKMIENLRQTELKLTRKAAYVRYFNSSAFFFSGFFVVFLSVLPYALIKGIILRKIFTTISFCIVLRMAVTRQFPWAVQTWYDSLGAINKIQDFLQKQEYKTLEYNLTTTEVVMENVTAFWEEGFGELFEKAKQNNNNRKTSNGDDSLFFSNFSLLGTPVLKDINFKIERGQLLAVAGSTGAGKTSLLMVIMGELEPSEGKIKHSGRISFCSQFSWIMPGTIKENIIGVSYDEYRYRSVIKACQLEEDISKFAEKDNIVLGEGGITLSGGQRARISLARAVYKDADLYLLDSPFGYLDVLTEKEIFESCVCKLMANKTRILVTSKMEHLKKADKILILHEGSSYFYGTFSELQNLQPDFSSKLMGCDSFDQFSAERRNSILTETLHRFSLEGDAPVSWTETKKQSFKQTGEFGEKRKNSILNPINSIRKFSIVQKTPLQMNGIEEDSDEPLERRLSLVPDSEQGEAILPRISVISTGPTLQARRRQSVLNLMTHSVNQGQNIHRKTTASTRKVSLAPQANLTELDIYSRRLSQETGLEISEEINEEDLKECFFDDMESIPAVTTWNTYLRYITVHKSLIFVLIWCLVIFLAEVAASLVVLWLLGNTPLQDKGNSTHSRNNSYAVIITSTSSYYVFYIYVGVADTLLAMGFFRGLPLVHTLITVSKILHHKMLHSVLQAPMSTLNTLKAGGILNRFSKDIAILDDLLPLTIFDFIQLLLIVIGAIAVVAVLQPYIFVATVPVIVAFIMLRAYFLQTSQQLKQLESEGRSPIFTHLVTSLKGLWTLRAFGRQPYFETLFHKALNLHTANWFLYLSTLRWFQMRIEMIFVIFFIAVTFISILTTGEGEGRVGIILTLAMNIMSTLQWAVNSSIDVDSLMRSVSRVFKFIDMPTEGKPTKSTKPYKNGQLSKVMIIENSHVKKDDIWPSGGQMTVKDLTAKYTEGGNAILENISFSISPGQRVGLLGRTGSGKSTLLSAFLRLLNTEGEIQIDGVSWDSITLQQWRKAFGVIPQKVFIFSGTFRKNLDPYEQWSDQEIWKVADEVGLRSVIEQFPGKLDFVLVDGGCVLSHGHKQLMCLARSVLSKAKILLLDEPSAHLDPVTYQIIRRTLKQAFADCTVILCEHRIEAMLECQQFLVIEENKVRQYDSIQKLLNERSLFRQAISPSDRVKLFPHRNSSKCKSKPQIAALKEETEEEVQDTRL

| SMILES | EC30 |
| --- | --- |
| CC(C)COc1cc(F)cc(-c2ccc(C(=O)NS(=O)(=O)c3cccc(N)n3)c(N3C[C@@H](C)CC3(C)C)c2F)c1 [Compound 2634, N-[(6-amino-2-pyridyl)sulfonyl]-3-fluoro-4-(3-fluoro-5-isobutoxy-phenyl)-2-[(4S)-2,2,4-trimethylpyrrolidin-1-yl]benzamide] | < 3000 nM |
| CC(C)c1ccccc1-c1ccc(C(=O)NS(=O)(=O)c2ccc[nH]c2=O)c(N2C[C@@H](C)CC2(C)C)n1 [Compound 2635, 6-(2-isopropylphenyl)-N-[(2-oxo-1H-pyridin-3-yl)sulfonyl]-2-[(4S)-2,2,4-trimethylpyrrolidin-1-yl]pyridine-3-carboxamide] | < 3000 nM |
| Cc1cc(F)cc(-c2ccc(C(=O)NS(=O)(=O)c3cccc(N)n3)c(N3C[C@@H](C)CC3(C)C)n2)c1 [Compound 2638, N-[(6-amino-2-pyridyl)sulfonyl]-6-(3-fluoro-5-methyl-phenyl)-2-[(4S)-2,2,4-trimethylpyrrolidin-1-yl]pyridine-3-carboxamide] | < 3000 nM |
| CCOc1ccc(CCNc2cccc(S(=O)(=O)NC(=O)c3cccnc3N3CC(C)CC3(C)C)n2)cc1 (stereo not shown) [Compound 2642, N—[[6-[2-(4-ethoxyphenyl)ethylamino]-2-pyridyl]sulfonyl]-2-(2,2,4-trimethylpyrrolidin-1-yl)pyridine-3-carboxamide] | < 3000 nM |
| C[C@@H]1CN(c2nc(-c3ccc(C(F)F)cc3)ccc2C(=O)NS(=O)(=O)c2cccnc2N)C(C)(C)C1 [Compound 2644, N-[(2-amino-3-pyridyl)sulfonyl]-6-[4-(difluoromethyl)phenyl]-2-[(4S)-2,2,4-trimethylpyrrolidin-1-yl]pyridine-3-carboxamide] | < 3000 nM |
| CC(C)CC/C=C/c1cnc(N2CC(C)CC2(C)C)c(C(=O)NS(=O)(=O)c2cccc(N)n2)c1 (stereo not shown) [Compound 2647, N-[(6-amino-2-pyridyl)sulfonyl]-5-[(E)-5-methylhex-1-enyl]-2-(2,2,4-trimethylpyrrolidin-1-yl)pyridine-3-carboxamide] | < 3000 nM |
| C[C@@H]1CN(c2nc(C3=CCCN(C(=O)CC(C)(C)C)C3)ccc2C(=O)NS(=O)(=O)c2cccc(N)n2)C(C)(C)C1 [Compound 2650, N-[(6-amino-2-pyridyl)sulfonyl]-6-[1-(3,3-dimethylbutanoyl)-3,6-dihydro-2H-pyridin-5-yl]-2-[(4S)-2,2,4-trimethylpyrrolidin-1-yl]pyridine-3-carboxamide] | 3000 to 10000 nM |
| CCOc1ncc(-c2ccc(C(=O)NS(=O)(=O)c3cccnc3N)c(N3C[C@@H](C)CC3(C)C)n2)cc1C [Compound 2651, N-[(2-amino-3-pyridyl)sulfonyl]-6-(6-ethoxy-5-methyl-3-pyridyl)-2-[(4S)-2,2,4-trimethylpyrrolidin-1-yl]pyridine-3-carboxamide] | < 3000 nM |
| C[C@@H]1CN(c2nc(-c3cc(F)cc(F)c3)ccc2C(=O)NS(=O)(=O)c2ccc[nH]c2=O)C(C)(C)C1 [Compound 2652, 6-(3,5-difluorophenyl)-N-[(2-oxo-1H-pyridin-3-yl)sulfonyl]-2-[(4S)-2,2,4-trimethylpyrrolidin-1-yl]pyridine-3-carboxamide] | < 3000 nM |

Next, values leading:

| EC30 | SMILES |
| --- | --- |
| < 3000 nM | CC1CN(c2ncccc2C(=O)NS(=O)(=O)c2cccc(NCCc3ccccc3Cl)n2)C(C)(C)C1 (stereo not shown) [Compound 2632, N—[[6-[2-(2-chlorophenyl)ethylamino]-2-pyridyl]sulfonyl]-2-(2,2,4-trimethylpyrrolidin-1-yl)pyridine-3-carboxamide] |
| 3000 to 10000 nM | C[C@@H]1CN(c2nc(C3=CCCN(C(=O)CC4CCCCC4)C3)ccc2C(=O)NS(=O)(=O)c2cccc(N)n2)C(C)(C)C1 [Compound 2633, N-[(6-amino-2-pyridyl)sulfonyl]-6-[1-(2-cyclohexylacetyl)-3,6-dihydro-2H-pyridin-5-yl]-2-[(4S)-2,2,4-trimethylpyrrolidin-1-yl]pyridine-3-carboxamide] |
| > 10000 nM | C[C@@H]1CN(c2nc(-c3cccc4[nH]ccc34)ccc2C(=O)NS(=O)(=O)c2ccc[nH]c2=O)C(C)(C)C1 [Compound 2636, 6-(1H-indol-4-yl)-N-[(2-oxo-1H-pyridin-3-yl)sulfonyl]-2-[(4S)-2,2,4-trimethylpyrrolidin-1-yl]pyridine-3-carboxamide] |
| < 3000 nM | COc1ccccc1Oc1cccc(S(=O)(=O)NC(=O)c2cccnc2N2CC(C)CC2(C)C)n1 (stereo not shown) [Compound 2637, N—[[6-(2-methoxyphenoxy)-2-pyridyl]sulfonyl]-2-(2,2,4-trimethylpyrrolidin-1-yl)pyridine-3-carboxamide] |
| < 3000 nM | CC1CN(c2ncccc2C(=O)NS(=O)(=O)c2cccc(Nc3ccccc3)n2)C(C)(C)C1 (stereo not shown) [Compound 2639, N-[(6-anilino-2-pyridyl)sulfonyl]-2-(2,2,4-trimethylpyrrolidin-1-yl)pyridine-3-carboxamide] |
| < 3000 nM | CC1CN(c2ncccc2C(=O)NS(=O)(=O)c2cccc(NCc3cccc(F)c3F)n2)C(C)(C)C1 (stereo not shown) [Compound 2640, N—[[6-[(2,3-difluorophenyl)methylamino]-2-pyridyl]sulfonyl]-2-(2,2,4-trimethylpyrrolidin-1-yl)pyridine-3-carboxamide] |
| < 3000 nM | CC1CN(c2ncccc2C(=O)NS(=O)(=O)c2cccc(N3CCC(C(F)(F)F)CC3)n2)C(C)(C)C1 (stereo not shown) [Compound 2641, N—[[6-[4-(trifluoromethyl)-1-piperidyl]-2-pyridyl]sulfonyl]-2-(2,2,4-trimethylpyrrolidin-1-yl)pyridine-3-carboxamide] |
| < 3000 nM | Cc1ccc2cccc(Oc3cccc(S(=O)(=O)NC(=O)c4cccnc4N4CC(C)CC4(C)C)n3)c2n1 (stereo not shown) [Compound 2643, N—[[6-[(2-methyl-8-quinolyl)oxy]-2-pyridyl]sulfonyl]-2-(2,2,4-trimethylpyrrolidin-1-yl)pyridine-3-carboxamide] |
| < 3000 nM | COc1ccc(Cl)cc1COc1cccc(S(=O)(=O)NC(=O)c2cccnc2N2CC(C)CC2(C)C)n1 (stereo not shown) [Compound 2645, N—[[6-[(5-chloro-2-methoxy-phenyl)methoxy]-2-pyridyl]sulfonyl]-2-(2,2,4-trimethylpyrrolidin-1-yl)pyridine-3-carboxamide] |
| < 3000 nM | COc1cc(-c2ccc(C(=O)NS(=O)(=O)c3cccnc3N)c(N3C[C@@H](C)CC3(C)C)n2)ccn1 [Compound 2646, N-[(2-amino-3-pyridyl)sulfonyl]-6-(2-methoxy-4-pyridyl)-2-[(4S)-2,2,4-trimethylpyrrolidin-1-yl]pyridine-3-carboxamide] |
| < 3000 nM | CC(C)=CCOc1cccc(S(=O)(=O)NC(=O)c2cccnc2N2CC(C)CC2(C)C)n1 (stereo not shown) [Compound 2648, N—[[6-(3-methylbut-2-enoxy)-2-pyridyl]sulfonyl]-2-(2,2,4-trimethylpyrrolidin-1-yl)pyridine-3-carboxamide] |
| < 3000 nM | CC1CN(c2ncc(-c3ccc(OC(F)(F)F)cc3)cc2C(=O)NS(=O)(=O)c2cccc(N)n2)C(C)(C)C1 (stereo not shown) [Compound 2649, N-[(6-amino-2-pyridyl)sulfonyl]-5-[4-(trifluoromethoxy)phenyl]-2-(2,2,4-trimethylpyrrolidin-1-yl)pyridine-3-carboxamide] |
| < 3000 nM | C[C@@H]1CN(c2nc(-c3ccc(F)cc3O)ccc2C(=O)NS(=O)(=O)c2cccnc2N)C(C)(C)C1 [Compound 2653, N-[(2-amino-3-pyridyl)sulfonyl]-6-(4-fluoro-2-hydroxy-phenyl)-2-[(4S)-2,2,4-trimethylpyrrolidin-1-yl]pyridine-3-carboxamide] |
